We go through 14 compounds from patent US12404241B2 (Celgene Corporation, priority 2018, dated 2025).

Usually DC50 stands for the concentration giving 50% degradation.

Molecules are shown by their SMILES.

In the assay the target is T1, AR (Homo sapiens, UniProt P10275).
T1 construct: endogenous in cells; host or cells: VCaP cells
T1 sequence (P10275 1-920): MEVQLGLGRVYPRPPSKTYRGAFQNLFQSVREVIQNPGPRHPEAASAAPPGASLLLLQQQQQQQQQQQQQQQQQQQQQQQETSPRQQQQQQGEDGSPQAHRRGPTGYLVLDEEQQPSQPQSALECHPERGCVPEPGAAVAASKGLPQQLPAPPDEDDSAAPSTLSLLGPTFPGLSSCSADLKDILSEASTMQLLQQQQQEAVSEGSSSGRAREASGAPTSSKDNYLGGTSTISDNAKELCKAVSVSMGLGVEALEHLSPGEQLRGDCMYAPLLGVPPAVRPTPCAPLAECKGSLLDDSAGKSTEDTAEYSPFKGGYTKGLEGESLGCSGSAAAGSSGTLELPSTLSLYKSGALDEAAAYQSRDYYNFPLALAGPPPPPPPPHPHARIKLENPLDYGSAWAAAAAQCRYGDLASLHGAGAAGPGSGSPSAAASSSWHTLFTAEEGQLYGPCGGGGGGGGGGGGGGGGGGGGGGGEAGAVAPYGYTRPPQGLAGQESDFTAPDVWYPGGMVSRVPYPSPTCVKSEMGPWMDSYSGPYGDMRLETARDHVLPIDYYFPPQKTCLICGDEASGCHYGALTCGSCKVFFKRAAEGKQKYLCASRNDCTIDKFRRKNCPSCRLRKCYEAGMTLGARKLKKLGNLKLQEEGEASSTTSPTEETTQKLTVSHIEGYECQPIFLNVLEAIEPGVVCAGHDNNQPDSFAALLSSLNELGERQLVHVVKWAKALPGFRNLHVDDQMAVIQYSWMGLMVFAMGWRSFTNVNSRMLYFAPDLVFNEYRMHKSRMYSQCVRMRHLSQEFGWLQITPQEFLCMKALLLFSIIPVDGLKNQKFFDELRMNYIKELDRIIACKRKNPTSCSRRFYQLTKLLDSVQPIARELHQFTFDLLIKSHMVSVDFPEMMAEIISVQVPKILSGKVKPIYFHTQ
In words: VCAP AR Degradation Assay. The class given is cell-based. Conditions: for Y (AR degradation efficiency, % of DMSO control): class symbols *; for DC50: class symbols A-C, read-out: DC50. In short, it runs like this: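 24 h, 37 °C, VCaP (DMEM/8% FBS), 10-pt 1:3 dilutions from 5 μM final top, 0.1% DMSO ctrl. Lysis on ice/4 °C 1 h; total AR by sandwich ELISA, normalized to DMSO. 4PL fit → DC50, EC50, Y (min AR level).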

In the case of `CCc1cc(N2C(=S)N(c3cnc(C#N)c(C(F)(F)F)c3)C(=O)C2(C)C)ccc1OCCN1CCN([C@H](C)C(=O)Nc2cccc(NC3CCC(=O)NC3=O)c2)CC1` (stereo partly drawn) [Example 119, (2R)-2-(4-(2-(4-(3-(6-cyano-5-(trifluoromethyl)pyridin-3-yl)-5,5-dimethyl-4-oxo-2-thioxoimidazolidin-1-yl)-2-ethylphenoxy)ethyl)piperazin-1-yl)-N-(3-(2,6-dioxopiperidin-3-ylamino)phenyl)propanamide], the “Y (AR degradation efficiency, % of DMSO control)” value is recorded as “* (0<Y<=25%)” and the DC50 is less than 100 nM.

For `CCc1cc(N2C(=S)N(c3cnc(C#N)c(C(F)(F)F)c3)C(=O)C2(C)C)ccc1OCCN1C[C@H]2C[C@@H]1CN2CC(=O)Nc1cc(Cl)cc(NC2CCC(=O)NC2=O)c1` (stereo partly drawn) [Example 120, N-(3-chloro-5-(2,6-dioxopiperidin-3-ylamino)phenyl)-2-((1R,4R)-5-(2-(4-(3-(6-cyano-5-(trifluoromethyl)pyridin-3-yl)-5,5-dimethyl-4-oxo-2-thioxoimidazolidin-1-yl)-2-ethylphenoxy)ethyl)-2,5-diazabicyclo[2.2.1]heptan-2-yl)acetamide], the “Y (AR degradation efficiency, % of DMSO control)” value is “** (25%<Y<=35%)” and the DC50 lay within 100 to 500 nM.

As to `CCc1cc(N2C(=S)N(c3ccc(C#N)c(C(F)(F)F)c3)C(=O)C2(C)C)ccc1OCCN1C[C@@H](C)N(CC(=O)Nc2cccc(NC3CCC(=O)NC3=O)c2)C[C@@H]1C` (stereo partly drawn) [Example 121, 2-((2R,5S)-4-(2-(4-(3-(4-cyano-3-(trifluoromethyl)phenyl)-5,5-dimethyl-4-oxo-2-thioxoimidazolidin-1-yl)-2-ethylphenoxy)ethyl)-2,5-dimethylpiperazin-l-yl)-N-(3-(2,6-dioxopiperidin-3-ylamino)phenyl)acetamide], the “Y (AR degradation efficiency, % of DMSO control)” value is “* (0<Y<=25%)” and the DC50 is less than 100 nM.

As to `CCc1cc(N2C(=S)N(c3ccc(C#N)c(C(F)(F)F)c3)C(=O)C2(C)C)ccc1OCCN1C[C@H](C)N(CC(=O)Nc2cccc(NC3CCC(=O)NC3=O)c2)C[C@H]1C` (stereo partly drawn) [Example 122, 2-((2S,5R)-4-(2-(4-(3-(4-cyano-3-(trifluoromethyl)phenyl)-5,5-dimethyl-4-oxo-2-thioxoimidazolidin-1-yl)-2-ethylphenoxy)ethyl)-2,5-dimethylpiperazin-1-yl)-N-(3-(2,6-dioxopiperidin-3-ylamino)phenyl)acetamide], the “Y (AR degradation efficiency, % of DMSO control)” value was “** (25%<Y<=35%)” and the half-maximal degradation concentration (DC50) was in the range of 100 to 500 nM.

On to `CCc1cc(N2C(=S)N(c3ccc(C#N)c(C(F)(F)F)c3)C(=O)C2(C)C)ccc1OCCN1C[C@@H](C)N(CC(=O)Nc2cc(Cl)cc(NC3CCC(=O)NC3=O)c2)C[C@@H]1C` (stereo partly drawn) [Example 123, N-(3-chloro-5-(2,6-dioxopiperidin-3-ylamino)phenyl)-2-((2R,5S)-4-(2-(4-(3-(4-cyano-3-(trifluoromethyl)phenyl)-5,5-dimethyl-4-oxo-2-thioxoimidazolidin-1-yl)-2-ethylphenoxy)ethyl)-2,5-dimethylpiperazin-1-yl)acetamide], for which the “Y (AR degradation efficiency, % of DMSO control)” value was “* (0<Y<=25%)” and the DC50 is less than 100 nM.

Regarding `CCc1cc(N2C(=S)N(c3ccc(C#N)c(C(F)(F)F)c3)C(=O)C2(C)C)ccc1OCCN1C[C@H](C)N(CC(=O)Nc2cc(Cl)cc(NC3CCC(=O)NC3=O)c2)C[C@H]1C` (stereo partly drawn) [Example 124, N-(3-chloro-5-(2,6-dioxopiperidin-3-ylamino)phenyl)-2-((2S,5R)-4-(2-(4-(3-(4-cyano-3-(trifluoromethyl)phenyl)-5,5-dimethyl-4-oxo-2-thioxoimidazolidin-1-yl)-2-ethylphenoxy)ethyl)-2,5-dimethylpiperazin-1-yl)acetamide], the “Y (AR degradation efficiency, % of DMSO control)” value is “* (0<Y<=25%)” and the DC50 was in the range of 100 to 500 nM.

With `CCc1cc(N2C(=S)N(c3ccc(C#N)c(C(F)(F)F)c3)C(=O)C2(C)C)ccc1OCCN1C[C@H](C)N(CC(=O)Nc2cccc(NC3CCC(=O)NC3=O)c2)C[C@@H]1C` (stereo partly drawn) [Example 125, 2-((2S,5S)-4-(2-(4-(3-(4-cyano-3-(trifluoromethyl)phenyl)-5,5-dimethyl-4-oxo-2-thioxoimidazolidin-1-yl)-2-ethylphenoxy)ethyl)-2,5-dimethylpiperazin-1-yl)-N-(3-(2,6-dioxopiperidin-3-ylamino)phenyl)acetamide], the “Y (AR degradation efficiency, % of DMSO control)” value is “* (0<Y<=25%)” and the DC50 is 100 to 500 nM.

`CCc1cc(N2C(=S)N(c3ccc(C#N)c(C(F)(F)F)c3)C(=O)C2(C)C)ccc1OCCN1C[C@H](C)N(CC(=O)Nc2cc(Cl)cc(NC3CCC(=O)NC3=O)c2)C[C@@H]1C` (stereo partly drawn) [Example 126, N-(3-chloro-5-(2,6-dioxopiperidin-3-ylamino)phenyl)-2-((2S,5S)-4-(2-(4-(3-(4-cyano-3-(trifluoromethyl)phenyl)-5,5-dimethyl-4-oxo-2-thioxoimidazolidin-1-yl)-2-ethylphenoxy)ethyl)-2,5-dimethylpiperazin-1-yl)acetamide]: the “Y (AR degradation efficiency, % of DMSO control)” value was “* (0<Y<=25%)” and the DC50 is less than 100 nM.

On to `CCc1cc(N2C(=S)N(c3ccc(C#N)c(C(F)(F)F)c3)C(=O)C2(C)C)ccc1OCCN1C[C@@H](C)N(CC(=O)Nc2cccc(NC3CCC(=O)NC3=O)c2)C[C@H]1C` (stereo partly drawn) [Example 127, 2-((2R,5R)-4-(2-(4-(3-(4-cyano-3-(trifluoromethyl)phenyl)-5,5-dimethyl-4-oxo-2-thioxoimidazolidin-1-yl)-2-ethylphenoxy)ethyl)-2,5-dimethylpiperazin-1-yl)-N-(3-(2,6-dioxopiperidin-3-ylamino)phenyl)acetamide], for which the “Y (AR degradation efficiency, % of DMSO control)” value is reported as “* (0<Y<=25%)” and the DC50 is less than 100 nM.

As to `CCc1cc(N2C(=S)N(c3ccc(C#N)c(C(F)(F)F)c3)C(=O)C2(C)C)ccc1OCCN1C[C@@H](C)N(CC(=O)Nc2cc(Cl)cc(NC3CCC(=O)NC3=O)c2)C[C@H]1C` (stereo partly drawn) [Example 128, N-(3-chloro-5-(2,6-dioxopiperidin-3-ylamino)phenyl)-2-((2R,5R)-4-(2-(4-(3-(4-cyano-3-(trifluoromethyl)phenyl)-5,5-dimethyl-4-oxo-2-thioxoimidazolidin-1-yl)-2-ethylphenoxy)ethyl)-2,5-dimethylpiperazin-1-yl)acetamide], the “Y (AR degradation efficiency, % of DMSO control)” value is recorded as “* (0<Y<=25%)” and the DC50 was less than 100 nM.

In the case of `CCc1cc(N2C(=S)N(c3ccc(C#N)c(C(F)(F)F)c3)C(=O)C2(C)C)ccc1OCCN1C[C@@H](C)N(CC(=O)Nc2cccc(NC3CCC(=O)NC3=O)c2)[C@H](C)C1` (stereo partly drawn) [Example 129, 2-((2R,6R)-4-(2-(4-(3-(4-cyano-3-(trifluoromethyl)phenyl)-5,5-dimethyl-4-oxo-2-thioxoimidazolidin-1-yl)-2-ethylphenoxy)ethyl)-2,6-dimethylpiperazin-1-yl)-N-(3-(2,6-dioxopiperidin-3-ylamino)phenyl)acetamide], the “Y (AR degradation efficiency, % of DMSO control)” value is on record as “* (0<Y<=25%)” and the DC50 was less than 100 nM.

For the compound `CCc1cc(N2C(=S)N(c3ccc(C#N)c(C(F)(F)F)c3)C(=O)C2(C)C)ccc1OCCN1C[C@@H](C)N(CC(=O)Nc2cc(Cl)cc(NC3CCC(=O)NC3=O)c2)[C@H](C)C1` (stereo partly drawn) [Example 130, N-(3-chloro-5-(2,6-dioxopiperidin-3-ylamino)phenyl)-2-((2R,6R)-4-(2-(4-(3-(4-cyano-3-(trifluoromethyl)phenyl)-5,5-dimethyl-4-oxo-2-thioxoimidazolidin-1-yl)-2-ethylphenoxy)ethyl)-2,6-dimethylpiperazin-1-yl)acetamide], the “Y (AR degradation efficiency, % of DMSO control)” value is listed as “* (0<Y<=25%)” and the DC50 is less than 100 nM.

Consider `CCc1cc(N2C(=S)N(c3cnc(C#N)c(C(F)(F)F)c3)C(=O)C2(C)C)ccc1OCCN1CCN(CC(=O)Nc2cc(Cl)cc(NC3CCC(=O)NC3=O)c2)[C@@H](C)C1` (stereo partly drawn) [Example 131, N-(3-chloro-5-(2,6-dioxopiperidin-3-ylamino)phenyl)-2-((S)-4-(2-(4-(3-(6-cyano-5-(trifluoromethyl)pyridin-3-yl)-5,5-dimethyl-4-oxo-2-thioxoimidazolidin-1-yl)-2-ethylphenoxy)ethyl)-2-methylpiperazin-1-yl)acetamide], for which the “Y (AR degradation efficiency, % of DMSO control)” value is given as “* (0<Y<=25%)” and the DC50 is less than 100 nM.

For the compound `CCc1cc(N2C(=S)N(c3ccc(C#N)c(C(F)(F)F)c3)C(=O)C23CCC3)ccc1OCCN1CCN(CC(=O)Nc2cccc(NC3CCC(=O)NC3=O)c2)CC1` (stereo not shown) [Example 132, 2-(4-(2-(4-(7-(4-cyano-3-(trifluoromethyl)phenyl)-8-oxo-6-thioxo-5,7-diazaspiro[3.4]octan-5-yl)-2-ethylphenoxy)ethyl)piperazin-1-yl)-N-(3-(2,6-dioxopiperidin-3-ylamino)phenyl)acetamide], the “Y (AR degradation efficiency, % of DMSO control)” value is on record as “* (0<Y<=25%)” and the DC50 is less than 100 nM.
